{"source": "patent US20140336159A1", "about": "“METHODS FOR TREATING AND DIAGNOSING RESPIRATORY TRACT INFECTIONS” (PULMATRIX, INC., priority 2011, published 2014)", "key": {"human macrophages": {"tested_on": "human macrophages", "test": "Cytokine secretion by LPS stimulated human monocyte-derived macrophages (normal and COPD-derived)", "format": "cell-based", "conditions": "10 ng/ml LPS, 2 hours", "experimental": "Normal and COPD-derived human monocytes were differentiated into macrophage derived monocytes in culture for 7 days. Cells were thawed following storage in liquid nitrogen, and then plated at 2.0-2.5×10^5 cells/well (in 0.2 ml per well) in IMDM cell culture media containing 10% human serum and human GM-CSF (50 ng/ml). On day 7, assays were performed on the cells, using media containing serum but no GM-CSF. Cells were stimulated with 10 ng/ml LPS, and exposed to calcium chloride concentrations of either 10 or 25 mM. Following two hours, supernatants were collected for LUMINEX analysis of IL-8, IL-6, TNF alpha and MIP-1 alpha (FIG. 17A), IL-8 only for COPD (FIG. 17B). […] Calcium chloride reduced LPS induced inflammation in normal and COPD-derived human monocyte-derived macrophages.\n(§1) To determine the effects of alternating the cation in the calcium chloride salt, LPS stimulated human or mouse macrophages were exposed to alternative divalent and monovalent cations, magnesium chloride and sodium chloride, as well as an alternative […] anion, calcium lactate. Normal human monocytes were differentiated into macrophage derived monocytes in culture for 7 days as described in Example 16, and perotineal derived mouse macrophages were described in Example 15. Following two hours of incubation with LPS (10 ng/ml) and the appropriate salt concentration, supernatants were collected for LUMINEX protein analysis of inflammatory cytokines."}, "[1]": {"tested_on": "LPS stimulated peritoneal macrophages", "test": "Cytokine secretion by LPS stimulated peritoneal macrophages", "format": "cell-based, mouse (C57BL/6)", "source_text": "Macrophages represent a key component of the innate immune system. Alveolar macrophages are thought to play a central role in disease pathogenesis by secreting pro-inflammatory cytokines and chemokines in the context of both chronic obstructive pulmonary disease (COPD) and cystic fibrosis (CF), two respiratory illnesses involving airway inflammation. It was hypothesized that given the prominent role of alveolar macrophages in LPS induced lung inflammation, it may be possible that Ca^2+-ion containing formulations directly influence the inflammatory response of the macrophage after LPS exposure. In order to test this hypothesis in-vitro, murine peritoneal macrophages were isolated. C57BL/6 female mice were anesthetized using isofluorane inhalant. […] To confirm macrophage phenotype, a cytospin preparation was performed. Cells were cultured in DMEM:F12 overnight. The following day the media was removed and the macrophages were exposed to media supplemented with varying concentrations of LPS (1 ng/ml to 1 microgram/ml), a dose range of supplemental calcium chloride (5 mM to 50 mM) as well as a dose range of calcium chloride in the presence of LPS for 2 hours. After 2 hours in culture the media was collected for analysis of inflammatory cytokines using LUMINEX® Multiplex immunoassays (Invitrogen/Life Technologies, Grand Island, N.Y.) and BIO-PLEX MANAGER™ software (Version 6) (Bio-Rad, Hercules, Calif.). Presto blue or trypan blue assays were used to determine cell viability. […] The media content for 3 representative inflammatory mediators (IL-6, KC and TNF-alpha) cultured under LPS free conditions (unstimulated) as well as cells exposed to 1 ng/ml LPS were analyzed.\nas §1"}, "[2]": {"tested_on": "macrophages stimulated with S. pneumoniae", "conditions": "S. pneumoniae challenge, 0, 5, 10, 25 mM, 2 hours", "method": "(§3) To assess the level of bacterial induced inflammation in isolated peritoneal murine macrophages, isolated cells were placed in cell culture media and allowed to adhere to 96 well plates overnight. […] Following two hours of incubation, supernatants were collected for LUMINEX analysis of KC and TNF alpha with the results shown in FIG. 19."}, "[3]": {"tested_on": "macrophages stimulated with K. pneumoniae", "conditions": "1×10^7 CFU/ml K. pneumoniae, 0, 5, 10, 25 mM, 2 hours", "method": "as §3"}, "TLR2/6": {"target": "TLR2/6 (Mus musculus, UniProt Q9EPW9+Q9QUN7)", "sequence (Q9QUN7 25-784)": "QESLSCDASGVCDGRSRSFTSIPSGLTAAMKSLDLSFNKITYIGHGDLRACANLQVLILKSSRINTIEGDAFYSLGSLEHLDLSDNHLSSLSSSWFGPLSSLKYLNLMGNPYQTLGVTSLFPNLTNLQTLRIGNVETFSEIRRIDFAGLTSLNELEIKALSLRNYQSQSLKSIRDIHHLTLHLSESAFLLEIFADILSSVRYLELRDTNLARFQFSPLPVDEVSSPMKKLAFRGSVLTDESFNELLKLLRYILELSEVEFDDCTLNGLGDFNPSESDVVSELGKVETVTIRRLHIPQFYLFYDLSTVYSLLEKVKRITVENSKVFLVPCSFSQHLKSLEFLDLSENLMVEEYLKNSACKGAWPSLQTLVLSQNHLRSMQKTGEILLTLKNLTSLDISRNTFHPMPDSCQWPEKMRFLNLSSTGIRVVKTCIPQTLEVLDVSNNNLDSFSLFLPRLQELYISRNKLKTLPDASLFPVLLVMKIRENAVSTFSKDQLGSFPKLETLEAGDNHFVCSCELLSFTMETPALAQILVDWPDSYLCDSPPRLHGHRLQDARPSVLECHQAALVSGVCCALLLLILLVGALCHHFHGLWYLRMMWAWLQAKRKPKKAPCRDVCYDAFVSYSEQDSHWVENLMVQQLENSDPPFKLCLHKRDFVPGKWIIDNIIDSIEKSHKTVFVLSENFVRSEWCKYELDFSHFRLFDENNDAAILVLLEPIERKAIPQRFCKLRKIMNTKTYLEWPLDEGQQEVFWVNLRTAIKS", "sequence (Q9EPW9 28-795)": "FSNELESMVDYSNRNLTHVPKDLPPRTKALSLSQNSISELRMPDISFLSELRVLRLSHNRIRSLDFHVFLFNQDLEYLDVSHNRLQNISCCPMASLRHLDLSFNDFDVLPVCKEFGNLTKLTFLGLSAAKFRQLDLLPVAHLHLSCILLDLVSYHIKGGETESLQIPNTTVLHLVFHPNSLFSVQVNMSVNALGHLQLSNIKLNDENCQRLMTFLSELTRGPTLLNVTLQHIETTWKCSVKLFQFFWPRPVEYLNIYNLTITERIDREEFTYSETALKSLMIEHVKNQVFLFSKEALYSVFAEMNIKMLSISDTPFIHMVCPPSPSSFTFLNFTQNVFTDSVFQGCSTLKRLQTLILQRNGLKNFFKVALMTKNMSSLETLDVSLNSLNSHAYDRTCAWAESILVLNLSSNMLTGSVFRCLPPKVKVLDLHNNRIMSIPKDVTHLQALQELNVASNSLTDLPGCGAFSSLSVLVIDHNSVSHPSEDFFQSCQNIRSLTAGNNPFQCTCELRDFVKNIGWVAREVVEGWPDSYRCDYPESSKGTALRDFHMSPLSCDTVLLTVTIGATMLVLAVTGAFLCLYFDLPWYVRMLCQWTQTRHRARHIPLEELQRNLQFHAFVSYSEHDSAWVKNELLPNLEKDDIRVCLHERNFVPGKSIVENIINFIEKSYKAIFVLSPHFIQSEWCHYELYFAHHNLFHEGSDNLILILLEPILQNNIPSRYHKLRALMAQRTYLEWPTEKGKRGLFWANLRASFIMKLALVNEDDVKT", "conditions": "TLR 2/6 ligand; negative values indicate increased KC", "experimental": "(§2) It was hypothesized that calcium likely alters the immune response to LPS and possibly other TLR receptors in alveolar macrophages. To test this hypothesis, primary macrophages were isolated from mice. Briefly, C57BL/6 female mice were anesthetized using isofluorane inhalant. Animals were injected i.p. with 1.5 ml thioglycollate. Three to four days post injection mice were euthanized using CO2 to harvest peritoneal macrophages. Under sterile conditions, the abdominal wall was exposed and the peritoneal cavity was injected with 7 ml of lavage media, which was immediately recovered back into the syringe and deposited into a 50 mL conical tube. The peritoneal cavity was opened and the residual lavage media was recovered. Cell suspensions were centrifuged at 1200 rpm (RT-6000) for 8-10 minutes. The supernatant was removed and cell pellets were resuspended in 1-2 ml lysis buffer, incubated at room temperature (RT) for 1-2 minutes, and resuspended in18-19 ml cell culture media (DMEM/F-12). Cells were again centrifuged, supernatants were removed, the cell pellets were pooled, washed once more in cell culture media, centrifuged, and resuspended in 10 ml cell culture media, and cells were counted using a hemocytometer. To confirm macrophage phenotype, a cytospin preparation was performed. Cells were cultured in DMEM:F12 overnight. Cells were then stimulated with agonists to TLR4 (LPS or LipidA), TLR1/2 (pam3CSK4), TLR2/6 (FLS-1), TLR2 (LT-SA), TLR3 (Poly I:C), TLR 5 (Flagellin), TLR7 (Gardiquimod or Loxoribine) and TLR9 (CPG-ODN) ligands with 0, 10 or 25 mM calcium chloride supplemented to the media."}, "TLR4": {"target": "TLR4 (Mus musculus, UniProt Q9QUK6)", "sequence (Q9QUK6 26-835)": "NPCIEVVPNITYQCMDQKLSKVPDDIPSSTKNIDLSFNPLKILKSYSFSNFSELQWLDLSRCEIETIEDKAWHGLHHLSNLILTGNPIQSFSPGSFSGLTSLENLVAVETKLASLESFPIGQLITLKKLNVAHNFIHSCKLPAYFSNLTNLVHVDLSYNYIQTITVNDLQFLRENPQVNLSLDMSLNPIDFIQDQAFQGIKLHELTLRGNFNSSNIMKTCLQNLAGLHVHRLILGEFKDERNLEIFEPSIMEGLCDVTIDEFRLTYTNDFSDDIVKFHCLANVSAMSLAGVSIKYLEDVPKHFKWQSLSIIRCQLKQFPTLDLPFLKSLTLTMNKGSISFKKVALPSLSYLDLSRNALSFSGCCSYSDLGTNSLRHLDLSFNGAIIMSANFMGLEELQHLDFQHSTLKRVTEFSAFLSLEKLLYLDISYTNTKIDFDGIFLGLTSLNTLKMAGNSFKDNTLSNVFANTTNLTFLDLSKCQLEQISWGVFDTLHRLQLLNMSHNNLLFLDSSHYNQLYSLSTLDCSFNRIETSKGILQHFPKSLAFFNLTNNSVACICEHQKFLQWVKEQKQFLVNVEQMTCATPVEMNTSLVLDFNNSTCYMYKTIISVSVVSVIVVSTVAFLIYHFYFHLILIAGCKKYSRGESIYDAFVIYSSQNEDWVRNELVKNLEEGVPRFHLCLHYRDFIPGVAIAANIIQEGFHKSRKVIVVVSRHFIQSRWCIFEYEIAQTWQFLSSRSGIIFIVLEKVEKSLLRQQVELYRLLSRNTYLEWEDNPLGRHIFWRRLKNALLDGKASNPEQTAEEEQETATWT", "sequence (Q9JHF9 19-160 partner)": "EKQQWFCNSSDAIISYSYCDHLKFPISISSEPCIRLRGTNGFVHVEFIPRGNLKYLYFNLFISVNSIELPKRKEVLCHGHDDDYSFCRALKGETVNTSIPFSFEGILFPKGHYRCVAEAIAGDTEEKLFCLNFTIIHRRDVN", "conditions": "TLR 4 ligand; negative values indicate increased KC", "experimental": "as §2"}, "TLR7": {"target": "TLR7 (Mus musculus, UniProt P58681)", "sequence (P58681 27-1050)": "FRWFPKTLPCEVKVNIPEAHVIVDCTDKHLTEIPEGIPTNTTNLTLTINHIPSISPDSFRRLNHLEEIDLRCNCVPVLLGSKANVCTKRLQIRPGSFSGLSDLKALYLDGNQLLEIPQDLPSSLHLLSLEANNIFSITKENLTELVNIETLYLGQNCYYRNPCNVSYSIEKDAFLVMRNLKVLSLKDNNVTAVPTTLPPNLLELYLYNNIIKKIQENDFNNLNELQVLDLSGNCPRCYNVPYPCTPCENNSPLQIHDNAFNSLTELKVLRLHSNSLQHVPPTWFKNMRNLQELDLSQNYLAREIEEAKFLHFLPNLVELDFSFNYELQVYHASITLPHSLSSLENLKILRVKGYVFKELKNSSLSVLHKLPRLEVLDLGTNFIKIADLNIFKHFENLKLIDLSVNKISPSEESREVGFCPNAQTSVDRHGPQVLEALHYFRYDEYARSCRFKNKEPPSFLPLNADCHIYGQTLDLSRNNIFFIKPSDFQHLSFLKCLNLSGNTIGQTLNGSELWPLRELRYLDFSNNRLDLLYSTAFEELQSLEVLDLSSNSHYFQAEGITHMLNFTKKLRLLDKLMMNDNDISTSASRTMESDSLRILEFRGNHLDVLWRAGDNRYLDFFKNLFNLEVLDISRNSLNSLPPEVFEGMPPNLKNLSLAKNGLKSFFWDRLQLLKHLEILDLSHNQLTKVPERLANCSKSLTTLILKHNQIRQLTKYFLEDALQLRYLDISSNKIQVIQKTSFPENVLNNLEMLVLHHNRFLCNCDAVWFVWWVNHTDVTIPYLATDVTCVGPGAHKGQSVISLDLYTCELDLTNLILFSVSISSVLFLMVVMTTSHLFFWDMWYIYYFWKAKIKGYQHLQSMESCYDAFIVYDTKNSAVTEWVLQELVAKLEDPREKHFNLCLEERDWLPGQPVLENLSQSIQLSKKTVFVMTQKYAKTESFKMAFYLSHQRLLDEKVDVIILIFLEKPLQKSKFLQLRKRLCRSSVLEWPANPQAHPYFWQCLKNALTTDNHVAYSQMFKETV", "conditions": "TLR 7 ligand; negative values indicate increased KC", "experimental": "as §2"}, "TLR1/2": {"target": "TLR1/2 (Mus musculus, UniProt Q9EPQ1+Q9QUN7)", "conditions": "TLR 1/2 ligand; negative values indicate increased KC", "experimental": "as §2"}, "TLR9": {"target": "TLR9 (Mus musculus, UniProt Q9EQU3)", "conditions": "TLR 9 ligand; negative values indicate increased KC", "experimental": "as §2"}, "TLR2": {"target": "TLR2 (Mus musculus, UniProt Q9QUN7)", "sequence (Q9QUN7 25-784)": "as the sequence (Q9QUN7 25-784) above", "conditions": "TLR 2 ligand; negative values indicate increased KC", "experimental": "as §2"}, "TLR 5": {"target": "TLR 5 (Mus musculus, UniProt Q9JLF7)", "conditions": "TLR 5 ligand; negative values indicate increased KC", "experimental": "as §2"}, "TLR3": {"target": "TLR3 (Mus musculus, UniProt Q99MB1)", "sequence (Q99MB1 26-905)": "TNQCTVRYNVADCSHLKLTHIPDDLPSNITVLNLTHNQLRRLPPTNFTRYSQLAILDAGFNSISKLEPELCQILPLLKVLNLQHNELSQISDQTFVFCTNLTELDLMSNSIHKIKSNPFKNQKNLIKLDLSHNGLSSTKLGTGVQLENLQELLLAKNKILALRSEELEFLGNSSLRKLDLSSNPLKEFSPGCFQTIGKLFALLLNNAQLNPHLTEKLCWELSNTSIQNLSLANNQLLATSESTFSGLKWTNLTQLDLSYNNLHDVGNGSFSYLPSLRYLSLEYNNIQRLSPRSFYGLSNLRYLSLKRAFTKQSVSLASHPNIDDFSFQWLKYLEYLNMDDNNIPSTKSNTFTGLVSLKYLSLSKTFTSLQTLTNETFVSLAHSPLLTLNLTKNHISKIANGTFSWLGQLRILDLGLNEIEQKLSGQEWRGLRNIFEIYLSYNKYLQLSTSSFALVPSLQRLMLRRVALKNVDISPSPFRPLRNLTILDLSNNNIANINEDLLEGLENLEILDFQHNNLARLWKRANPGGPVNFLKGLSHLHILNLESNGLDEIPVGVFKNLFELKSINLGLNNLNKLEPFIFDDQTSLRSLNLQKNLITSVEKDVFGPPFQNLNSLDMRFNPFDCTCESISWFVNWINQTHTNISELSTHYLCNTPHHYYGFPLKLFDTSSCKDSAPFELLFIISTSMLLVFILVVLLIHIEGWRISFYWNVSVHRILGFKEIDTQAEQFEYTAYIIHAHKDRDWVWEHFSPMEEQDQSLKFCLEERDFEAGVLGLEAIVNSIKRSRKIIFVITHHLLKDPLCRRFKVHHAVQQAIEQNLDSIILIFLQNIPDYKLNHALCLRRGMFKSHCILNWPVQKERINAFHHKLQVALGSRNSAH", "conditions": "TLR 3 ligand; negative values indicate increased KC", "experimental": "as §2"}, "[4]": {"tested_on": "LPS stimulated peritoneal macrophages", "method": "Following 2 hours of incubation, cells were lysed, RNA was isolated, and a cDNA reaction was performed. RNA was harvested using the QIAGEN (Germantown, Md.) RNeasy® Plus Mini kit according to the manufacturer's Animal Cell Protocol (2005). RNA concentration and purity was determined by spectrophotometry using NANODROP 1000 spectrophotometer (Thermo Fisher Scientific, Wilmington, Del.). The expression of KC, IL-6, and TNF alpha were assessed by quantitative PCR. RNA expression levels of selected genes were quantified using the delta/delta C(t) (ΔΔCt) method using the expression of 18S as an internal reference for each sample. RNA was quantified by a two-step procedure in which RNA was converted to cDNA by reverse transcription using the iSCRIPT cDNA Synthesis kit from Bio-Rad followed by quantitative PCR (qPCR) using iQ SYBR Green Supermix from Bio-Rad.\nThe following cDNA synthesis reaction conditions were used: […]\nThe following quantitative PCR reaction conditions were used: […]\nData were collected and analyzed using the (delta/delta) ΔΔCt method. […] The fold change was then determined by the equation: 2^−ΔΔCt. […]"}}}
{"smiles": "[Ca+2].[Cl-].[Cl-]", "note": "[calcium chloride]", "values": [{"measurement": "inflammatory cytokine secretion (IL-8, IL-6, TNF alpha, MIP-1 alpha; IL-8 only for COPD)", "setting": "human macrophages; 25 mM, to near that of non-LPS challenged cells", "result": "significant decline"}, {"measurement": "LPS induced cytokine production (IL-8, IL-6)", "setting": "human macrophages; human macrophages, salts 0-50 mM", "result": "of lesser magnitude than calcium lactate but more potent than sodium chloride"}, {"measurement": "protein secretion of KC, IL-6 and TNF alpha", "setting": "[1]; 1 ng/ml LPS, 2 hours, 10, 25, 50 mM, compared to untreated (0) cells", "result": "significantly reduced"}, {"measurement": "cell viability", "setting": "[1]; Presto blue or trypan blue assays", "result": "generally did not affect cell viability"}, {"measurement": "LPS induced inflammatory mediator secretion (KC, IL-6)", "setting": "[1]; mouse macrophages, 10 ng/ml LPS, 2 hours, salts 0-50 mM", "result": "decreased"}, {"measurement": "inflammatory mediator release of unstimulated cells", "setting": "[1]; no LPS, increasing calcium chloride content", "result": "mild increase"}, {"measurement": "inflammatory mediator secretion (KC, TNF alpha)", "setting": "[2]", "result": "little effect"}, {"measurement": "inflammatory mediator secretion (KC, TNF alpha)", "setting": "[3]", "result": "dose-dependent decrease"}, {"measurement": "% KC reduction at 10 mM calcium ion", "setting": "TLR2/6", "result": "−25 ± 11", "unit": "%"}, {"measurement": "% KC reduction at 25 mM calcium ion", "setting": "TLR2/6", "result": "−51 ± 27", "unit": "%"}, {"measurement": "% KC reduction at 10 mM calcium ion", "setting": "TLR4", "result": "68 ± 15", "unit": "%"}, {"measurement": "% KC reduction at 25 mM calcium ion", "setting": "TLR4", "result": "75 ± 13", "unit": "%"}, {"measurement": "% KC reduction at 10 mM calcium ion", "setting": "TLR7", "result": "−10 ± 41", "unit": "%"}, {"measurement": "% KC reduction at 25 mM calcium ion", "setting": "TLR7", "result": "−20 ± 49", "unit": "%"}, {"measurement": "% KC reduction at 10 mM calcium ion", "setting": "TLR1/2", "result": "−1 ± 9", "unit": "%"}, {"measurement": "% KC reduction at 25 mM calcium ion", "setting": "TLR1/2", "result": "−27 ± 58", "unit": "%"}, {"measurement": "% KC reduction at 10 mM calcium ion", "setting": "TLR9", "result": "−55 ± 51", "unit": "%"}, {"measurement": "% KC reduction at 25 mM calcium ion", "setting": "TLR9", "result": "−144", "unit": "%"}, {"measurement": "% KC reduction at 10 mM calcium ion", "setting": "TLR2", "result": "46 ± 10", "unit": "%"}, {"measurement": "% KC reduction at 25 mM calcium ion", "setting": "TLR2", "result": "85 ± 9", "unit": "%"}, {"measurement": "% KC reduction at 10 mM calcium ion", "setting": "TLR 5", "result": "54 ± 6", "unit": "%"}, {"measurement": "% KC reduction at 25 mM calcium ion", "setting": "TLR 5", "result": "50 ± 2", "unit": "%"}, {"measurement": "% KC reduction at 10 mM calcium ion", "setting": "TLR3", "result": "81 ± 7", "unit": "%"}, {"measurement": "% KC reduction at 25 mM calcium ion", "setting": "TLR3", "result": "76 ± 16", "unit": "%"}, {"measurement": "gene expression of KC, IL-6 and TNFα", "setting": "[4]; 1 ng/ml LPS, 2 hours, 10, 25, 50 mM, compared to untreated (0)", "result": "significantly reduced"}, {"measurement": "NRIP1 gene expression", "setting": "[4]; LPS stimulated", "result": "significantly reduced"}]}
